Active and inactive are the calls of the source. No cut-off for these calls is given here.

The subject of test [1] is MDA-MB-231. Description: Induction of cell cycle arrest in human MDA-MB-231 cells assessed as accumulation of cells at S phase at 1 uM incubated for 48 hrs by PI staining based flow cytometry (reference value: 12.56 to 14.76%). Type of test: functional. For orientation: A flow cytometer gives signals particle by particle.
Test [2] deals with MDA-MB-231. The test can be described thus: Induction of cell cycle arrest in human MDA-MB-231 cells assessed as accumulation of cells at G2/M phase at 2.5 uM incubated for 48 hrs by PI staining based flow cytometry (reference value: 29.42 to 32.08%). Type of test: functional.
In test [3] the test system is MDA-MB-231. The test can be described thus: Induction of cell cycle arrest in human MDA-MB-231 cells assessed as accumulation of cells at G0/G1 phase at 1 uM incubated for 48 hrs by PI staining based flow cytometry (reference value: 55.36 to 55.82%). The test is classed as functional.
Test [4] deals with MDA-MB-231. Description: Induction of apoptosis in human MDA-MB-231 cells assessed as late apoptotic cells at 25 uM incubated for 48 hrs by AnnexinV-FITC/PI staining based flow cytometry (reference value: 3.77 to 3.84%). Type of test: functional.
The subject of test [5] is MDA-MB-231. The test can be described thus: Induction of cell cycle arrest in human MDA-MB-231 cells assessed as accumulation of cells at S phase at 10 uM incubated for 48 hrs by PI staining based flow cytometry (reference value: 12.56 to 14.76%). Type of test: functional.
The test system of test [6] is MDA-MB-231. The test can be described thus: Induction of apoptosis in human MDA-MB-231 cells assessed as late apoptotic cells at 5 uM incubated for 48 hrs by AnnexinV-FITC/PI staining based flow cytometry (reference value: 3.77 to 3.84%). The test is classed as functional.
The subject of test [7] is MDA-MB-231. Description: Induction of apoptosis in human MDA-MB-231 cells assessed as viable cells at 10 uM incubated for 48 hrs by AnnexinV-FITC/PI staining based flow cytometry (reference value: 91.22 to 92.84%). Type of test: functional. Particulars: read-out: Activity.
The subject of test [8] is MDA-MB-231. The test can be described thus: Induction of cell cycle arrest in human MDA-MB-231 cells assessed as accumulation of cells at G0/G1 phase at 25 uM incubated for 48 hrs by PI staining based flow cytometry (reference value: 55.36 to 55.82%). The test is classed as functional.
Test [9] relates to MDA-MB-231. Description: Induction of apoptosis in human MDA-MB-231 cells assessed as upregulation of cleaved PARP level at 1 to 25 uM incubated for 48 hrs by western blot analysis. The test is classed as functional, cell-based. To be noted: dose 1-25 µM.
Test [10] relates to MDA-MB-231. The test can be described thus: Induction of apoptosis in human MDA-MB-231 cells assessed as viable cells at 5 uM incubated for 48 hrs by AnnexinV-FITC/PI staining based flow cytometry (reference value: 91.22 to 92.84%). The test is classed as functional. To be noted: read-out: Activity.

Regarding `CC(c1ccc2ncccc2c1)n1nnc2ncc(N3CCN(Cc4ccc(/C=C/C(=O)Nc5ccccc5N)cc4)CC3)nc21` (stereo not given), the Activity in test [1] was 7.57%; in [2] it was 23.33%; in test [3] it was 65.34%; in [4], 12.3%; in test [5], 8.21%; in [6], 6.84%. For the same compound, the Activity in [8] amounted to 83.37%. The viability at 10 µM in test [7] turned out to be 83.1%. For the same compound, the outcome in test [9] was Active. Moreover, the viability at 5 µM in test [10] was 85.5%.
